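96-well plates; 48 h exposure; 5 concentrations. Endpoints by linear interpolation between flanking doses. Not reached: highest tested concentration assigned. TGI marks complete inhibition of growth.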
Experiments:
Experiment in all cases: NCI-60 cell line screen, 48 h
786-0 renal = system: 786-0 renal
A549 NSCLC = system: A549 NSCLC
ACHN renal = system: ACHN renal
CCRF-CEM leukemia = system: CCRF-CEM leukemia
COLO 205 colon = system: COLO 205 colon
DMS 114 small cell lung = system: DMS 114 small cell lung
DMS 273 small cell lung = system: DMS 273 small cell lung
EKVX NSCLC = system: EKVX NSCLC
HCC-2998 colon = system: HCC-2998 colon
HCT-116 colon = system: HCT-116 colon
HCT-15 colon = system: HCT-15 colon
HL-60(TB) leukemia = system: HL-60(TB) leukemia
HOP-62 NSCLC = system: HOP-62 NSCLC
HT29 colon = system: HT29 colon
IGROV1 ovarian = system: IGROV1 ovarian
K-562 leukemia = system: K-562 leukemia
KM12 colon = system: KM12 colon
KM20L2 colon = system: KM20L2 colon
LOX IMVI melanoma = system: LOX IMVI melanoma
LXFL 529 NSCLC = system: LXFL 529 NSCLC
M14 melanoma = system: M14 melanoma
M19-MEL melanoma = system: M19-MEL melanoma
MALME-3M melanoma = system: MALME-3M melanoma
MOLT-4 leukemia = system: MOLT-4 leukemia
NCI-H226 lung = system: NCI-H226 lung
NCI-H23 lung = system: NCI-H23 lung
NCI-H460 lung = system: NCI-H460 lung
NCI-H522 lung = system: NCI-H522 lung
OVCAR-3 ovarian = system: OVCAR-3 ovarian
OVCAR-8 ovarian = system: OVCAR-8 ovarian
RPMI-8226 leukemia = system: RPMI-8226 leukemia
SF-268 CNS = system: SF-268 CNS
SF-295 CNS = system: SF-295 CNS
SF-539 CNS = system: SF-539 CNS
SK-MEL-28 melanoma = system: SK-MEL-28 melanoma
SK-MEL-5 melanoma = system: SK-MEL-5 melanoma
SK-OV-3 ovarian = system: SK-OV-3 ovarian
SN12C renal = system: SN12C renal
SNB-19 CNS = system: SNB-19 CNS
SR leukemia = system: SR leukemia
SW-620 colon = system: SW-620 colon
TK-10 renal = system: TK-10 renal
U251 CNS = system: U251 CNS
UACC-257 melanoma = system: UACC-257 melanoma
UACC-62 melanoma = system: UACC-62 melanoma
UO-31 renal = system: UO-31 renal
XF 498 CNS = system: XF 498 CNS
A498 renal = system: A498 renal
CAKI-1 renal = system: CAKI-1 renal
DLD-1 colon = system: DLD-1 colon
HOP-92 NSCLC = system: HOP-92 NSCLC
OVCAR-4 ovarian = system: OVCAR-4 ovarian
OVCAR-5 ovarian = system: OVCAR-5 ovarian
RXF 393 renal = system: RXF 393 renal
SK-MEL-2 melanoma = system: SK-MEL-2 melanoma
SNB-75 CNS = system: SNB-75 CNS
SNB-78 CNS = system: SNB-78 CNS
BT-549 breast = system: BT-549 breast
DU-145 prostate = system: DU-145 prostate
HS 578T breast = system: HS 578T breast
MCF7 breast = system: MCF7 breast
MDA-MB-231 breast = system: MDA-MB-231 breast
MDA-MB-435 = system: MDA-MB-435
MDA-N = system: MDA-N
PC-3 prostate = system: PC-3 prostate
T-47D breast = system: T-47D breast

CC1(C)CC(C)(C)CC(O)(C2(O)CC(C)(C)CC(C)(C)C2)C1
TGI (786-0 renal): > 100 µM | TGI (A549 NSCLC): > 100 µM | TGI (ACHN renal): > 100 µM | TGI (CCRF-CEM leukemia): > 100 µM | TGI (COLO 205 colon): > 100 µM | TGI (DMS 114 small cell lung): > 100 µM | TGI (DMS 273 small cell lung): > 100 µM | TGI (EKVX NSCLC): > 100 µM | TGI (HCC-2998 colon): > 100 µM | TGI (HCT-116 colon): > 100 µM | TGI (HCT-15 colon): > 100 µM | TGI (HL-60(TB) leukemia): > 100 µM | TGI (HOP-62 NSCLC): > 100 µM | TGI (HT29 colon): > 100 µM | TGI (IGROV1 ovarian): > 100 µM | TGI (K-562 leukemia): > 100 µM | TGI (KM12 colon): > 100 µM | TGI (KM20L2 colon): > 100 µM | TGI (LOX IMVI melanoma): > 100 µM | TGI (LXFL 529 NSCLC): > 100 µM | TGI (M14 melanoma): > 100 µM | TGI (M19-MEL melanoma): > 100 µM | TGI (MALME-3M melanoma): > 100 µM | TGI (MOLT-4 leukemia): > 100 µM | TGI (NCI-H226 lung): > 100 µM | TGI (NCI-H23 lung): > 100 µM | TGI (NCI-H460 lung): > 100 µM | TGI (NCI-H522 lung): > 100 µM | TGI (OVCAR-3 ovarian): > 100 µM | TGI (OVCAR-8 ovarian): > 100 µM | TGI (RPMI-8226 leukemia): > 100 µM | TGI (SF-268 CNS): > 100 µM | TGI (SF-295 CNS): > 100 µM | TGI (SF-539 CNS): > 100 µM | TGI (SK-MEL-28 melanoma): > 100 µM | TGI (SK-MEL-5 melanoma): > 100 µM | TGI (SK-OV-3 ovarian): > 100 µM | TGI (SN12C renal): > 100 µM | TGI (SNB-19 CNS): > 100 µM | TGI (SR leukemia): > 100 µM | TGI (SW-620 colon): > 100 µM | TGI (TK-10 renal): > 100 µM | TGI (U251 CNS): > 100 µM | TGI (UACC-257 melanoma): > 100 µM | TGI (UACC-62 melanoma): > 100 µM | TGI (UO-31 renal): > 100 µM | TGI (XF 498 CNS): > 100 µM

COc1ccc(C(=O)N2c3ccccc3N(C)n3cccc3C2CC(=O)O)cc1 (centres undefined)
TGI (786-0 renal): > 100 µM | TGI (A498 renal): > 100 µM | TGI (A549 NSCLC): > 100 µM | TGI (ACHN renal): > 100 µM | TGI (CAKI-1 renal): > 100 µM | TGI (CCRF-CEM leukemia): > 100 µM | TGI (COLO 205 colon): > 100 µM | TGI (DLD-1 colon): > 100 µM | TGI (DMS 114 small cell lung): > 100 µM | TGI (DMS 273 small cell lung): > 100 µM | TGI (EKVX NSCLC): > 100 µM | TGI (HCC-2998 colon): > 100 µM | TGI (HCT-15 colon): > 100 µM | TGI (HL-60(TB) leukemia): > 100 µM | TGI (HOP-62 NSCLC): > 100 µM | TGI (HOP-92 NSCLC): > 100 µM | TGI (HT29 colon): > 100 µM | TGI (IGROV1 ovarian): > 100 µM | TGI (K-562 leukemia): > 100 µM | TGI (KM12 colon): > 100 µM | TGI (KM20L2 colon): > 100 µM | TGI (LOX IMVI melanoma): > 100 µM | TGI (LXFL 529 NSCLC): > 100 µM | TGI (M14 melanoma): > 100 µM | TGI (M19-MEL melanoma): > 100 µM | TGI (MALME-3M melanoma): > 100 µM | TGI (MOLT-4 leukemia): > 100 µM | TGI (NCI-H226 lung): > 100 µM | TGI (NCI-H23 lung): > 100 µM | TGI (NCI-H460 lung): > 100 µM | TGI (NCI-H522 lung): > 100 µM | TGI (OVCAR-3 ovarian): > 100 µM | TGI (OVCAR-4 ovarian): > 100 µM | TGI (OVCAR-5 ovarian): > 100 µM | TGI (OVCAR-8 ovarian): > 100 µM | TGI (RPMI-8226 leukemia): > 100 µM | TGI (RXF 393 renal): > 100 µM | TGI (SF-268 CNS): > 100 µM | TGI (SF-295 CNS): > 100 µM | TGI (SF-539 CNS): > 100 µM | TGI (SK-MEL-2 melanoma): > 100 µM | TGI (SK-MEL-28 melanoma): > 100 µM | TGI (SK-MEL-5 melanoma): > 100 µM | TGI (SK-OV-3 ovarian): > 100 µM | TGI (SN12C renal): > 100 µM | TGI (SNB-19 CNS): > 100 µM | TGI (SNB-75 CNS): > 100 µM | TGI (SNB-78 CNS): > 100 µM | TGI (SW-620 colon): > 100 µM | TGI (TK-10 renal): > 100 µM | TGI (UACC-257 melanoma): > 100 µM | TGI (UACC-62 melanoma): > 100 µM | TGI (UO-31 renal): > 100 µM

CN(C)CCCNc1ccnc2cccc([N+](=O)[O-])c12
TGI (786-0 renal): 37.1 µM | TGI (A498 renal): 30.7 µM | TGI (A549 NSCLC): 35.7 µM | TGI (ACHN renal): 24.3 µM | TGI (BT-549 breast): 43.9 µM | TGI (CAKI-1 renal): 52.8 µM | TGI (CCRF-CEM leukemia): > 100 µM | TGI (COLO 205 colon): 15.6 µM | TGI (DU-145 prostate): > 100 µM | TGI (EKVX NSCLC): 19.9 µM | TGI (HCC-2998 colon): 32.1 µM | TGI (HCT-116 colon): 27.7 µM | TGI (HCT-15 colon): 39.9 µM | TGI (HL-60(TB) leukemia): > 100 µM | TGI (HOP-62 NSCLC): > 56.9 µM | TGI (HOP-92 NSCLC): 28.8 µM | TGI (HS 578T breast): 97.1 µM | TGI (HT29 colon): 27 µM | TGI (IGROV1 ovarian): 28.3 µM | TGI (K-562 leukemia): > 100 µM | TGI (KM12 colon): 27 µM | TGI (KM20L2 colon): 25.9 µM | TGI (LOX IMVI melanoma): 35.8 µM | TGI (M14 melanoma): 25.8 µM | TGI (MALME-3M melanoma): 21.4 µM | TGI (MCF7 breast): 28.2 µM | TGI (MDA-MB-231 breast): 39.6 µM | TGI (MDA-MB-435): 42.3 µM | TGI (MDA-N): 47 µM | TGI (MOLT-4 leukemia): > 100 µM | TGI (NCI-H226 lung): 38.2 µM | TGI (NCI-H23 lung): 23.5 µM | TGI (NCI-H460 lung): 25.2 µM | TGI (NCI-H522 lung): 18.2 µM | TGI (OVCAR-3 ovarian): 20.6 µM | TGI (OVCAR-4 ovarian): 20.4 µM | TGI (OVCAR-5 ovarian): 44.1 µM | TGI (OVCAR-8 ovarian): > 100 µM | TGI (PC-3 prostate): 30.3 µM | TGI (RPMI-8226 leukemia): > 100 µM | TGI (RXF 393 renal): 61.1 µM | TGI (SF-268 CNS): 47.7 µM | TGI (SF-295 CNS): 36.5 µM | TGI (SF-539 CNS): 45.1 µM | TGI (SK-MEL-2 melanoma): 33.8 µM | TGI (SK-MEL-28 melanoma): 35.4 µM | TGI (SK-MEL-5 melanoma): 24.4 µM | TGI (SK-OV-3 ovarian): 22.9 µM | TGI (SN12C renal): 30.8 µM | TGI (SNB-19 CNS): 56.6 µM | TGI (SNB-75 CNS): 73.4 µM | TGI (SNB-78 CNS): 61.6 µM | TGI (SR leukemia): > 100 µM | TGI (SW-620 colon): 40.1 µM | TGI (T-47D breast): 80.8 µM | TGI (TK-10 renal): 36 µM | TGI (U251 CNS): > 70.7 µM | TGI (UACC-257 melanoma): 30.7 µM | TGI (UO-31 renal): 38.8 µM

— PubChem BioAssay (NCI)
